Source: PubChem BioAssay AID220 (DTP/NCI, 2004)
Where “and” joins values, the source holds several entries; their conditions need not be identical. Equal entries are not always repeated. Results filed as inconclusive are left out. Positions of bridges follow the written chain, without caps; N, C: chain ends. Residues, ends and D or L forms follow the SMILES beside them. *: point of attachment. Trt = c1ccc(C(c2ccccc2)(c2ccccc2)*)cc1; Cbz = O=C(OCc1ccccc1)*; Bn = c1ccc(C*)cc1; βAla = NCCC(=O)O

System: CD8F1 mice, subcutaneous mammary adenocarcinoma, T/C%
Assay: NCI In Vivo Anticancer Drug Screen. Data for tumor model Mammary Adenocarcinoma CD8F1 (subcutaneous) in CD8F1
Conditions: higher = larger tumour
Summary of the method: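 Antitumor activity is assessed in transplantable-tumor mice by comparing the treated group with a vehicle-treated control group. Survival or tumor size serves as the measure, reported as T divided by C.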

[1] = endpoint: median tumor weight (est.), dose: 25.0 mg/kg/injection, schedule: Q07DX005 (ip), vehicle: saline
[2] = endpoint: median tumor weight (est.), dose: 100.0 mg/kg/injection, schedule: Q07DX005 (ip), vehicle: saline
[3] = endpoint: median tumor weight change, dose: 250.0 mg/kg/injection, schedule: Q01DX001 (ip), vehicle: saline with Tween-80
[4] = endpoint: median tumor weight change, dose: 500.0 mg/kg/injection, schedule: Q01DX001 (ip), vehicle: saline with Tween-80
[5] = endpoint: median tumor weight (est.), dose: 200.0 mg/kg/injection, schedule: Q07DX005 (ip), vehicle: saline

Question: `CC1CN1P1(N2CC2C)=NP(N2CC2C)(N2CC2C)=NP(N2CC2C)(N2CC2C)=N1` (configuration not stated) was tested. Which T/C (endpoint: mean tumor weight, dose: 12.5 mg/kg/injection, schedule: Q04DX005 (ip), vehicle: saline) did it give?
Answer: 61 % of control

Question: And the T/C (endpoint: mean tumor weight, dose: 25.0 mg/kg/injection, schedule: Q04DX005 (ip), vehicle: saline)?
Answer: 97 % of control

Question: What about the T/C (endpoint: mean tumor weight, dose: 25.0 mg/kg/injection, schedule: Q07DX005 (ip), vehicle: saline) of the same compound?
Answer: 119 % of control

Question: And the T/C (endpoint: mean tumor weight, dose: 50.0 mg/kg/injection, schedule: Q04DX005 (ip), vehicle: saline)?
Answer: 66 % of control

Question: What about the T/C (endpoint: mean tumor weight, dose: 50.0 mg/kg/injection, schedule: Q07DX005 (ip), vehicle: saline) of the same compound?
Answer: 92 % of control

Question: And the T/C (endpoint: mean tumor weight, dose: 100.0 mg/kg/injection, schedule: Q04DX005 (ip), vehicle: saline)?
Answer: 13 % of control

Question: What about the T/C (endpoint: mean tumor weight, dose: 100.0 mg/kg/injection, schedule: Q07DX005 (ip), vehicle: saline) of the same compound?
Answer: 49 % of control

Question: And the T/C [1]?
Answer: 70 % of control

Question: What about the T/C [2] of the same compound?
Answer: 6 % of control and 11 % of control

Question: How did the T/C (endpoint: median tumor weight change, dose: 3.75 mg/kg/injection, schedule: Q01DX001 (ip), vehicle: Klucel (hydroxypropylcellulose) (HPC)) turn out when `CC(=O)O[C@@H]1CO[C@H]2O[C@H]3[C@@H](C(C=O)=C[C@H](O)[C@@H]4C5=C(C(C)C)CC[C@]5(C)CC[C@@]34C)[C@@]2(O)C1=O` was run?
Answer: 36 % of control

Question: And the T/C (endpoint: median tumor weight change, dose: 15.0 mg/kg/injection, schedule: Q01DX001 (ip), vehicle: Klucel (hydroxypropylcellulose) (HPC))?
Answer: 63 % of control and 74 % of control

Question: What does the source list for `C1OCN2CSCC12` (configuration not stated)?
Answer: T/C (endpoint: median tumor weight change, dose: 125.0 mg/kg/injection, schedule: Q01DX001 (ip), vehicle: saline with Tween-80): 90 % of control; T/C [3]: 71 % of control; T/C [4]: 82 % of control

Question: Which T/C (endpoint: median tumor weight (est.), dose: 2.5 mg/kg/injection, schedule: Q07DX005 (ip), vehicle: Klucel (hydroxypropylcellulose) (HPC)) does the source give for `C=CC(C)(C)n1cc(C2=C(O)C(=O)C(c3cn(C(C)(C)C=C)c4ccccc34)=C(O)C2=O)c2ccccc21` here?
Answer: 122 % of control

Question: And the T/C (endpoint: median tumor weight (est.), dose: 5.0 mg/kg/injection, schedule: Q07DX005 (ip), vehicle: Klucel (hydroxypropylcellulose) (HPC))?
Answer: 74 % of control

Question: And the T/C (endpoint: median tumor weight (est.), dose: 10.0 mg/kg/injection, schedule: Q07DX005 (ip), vehicle: Klucel (hydroxypropylcellulose) (HPC))?
Answer: 91 % of control

Question: What about the T/C (endpoint: median tumor weight (est.), dose: 20.0 mg/kg/injection, schedule: Q07DX005 (ip), vehicle: Klucel (hydroxypropylcellulose) (HPC)) of the same compound?
Answer: 157 % of control

Question: What about the T/C (endpoint: median tumor weight (est.), dose: 40.0 mg/kg/injection, schedule: Q07DX005 (ip), vehicle: Klucel (hydroxypropylcellulose) (HPC)) of the same compound?
Answer: 168 % of control

Question: And the T/C (endpoint: median tumor weight change, dose: 1.25 mg/kg/injection, schedule: Q01DX001 (ip), vehicle: DMSO)?
Answer: 64 % of control

Question: What about the T/C (endpoint: median tumor weight change, dose: 2.5 mg/kg/injection, schedule: Q01DX001 (ip), vehicle: DMSO) of the same compound?
Answer: 77 % of control

Question: And the T/C (endpoint: median tumor weight change, dose: 5.0 mg/kg/injection, schedule: Q01DX001 (ip), vehicle: DMSO)?
Answer: 86 % of control

Question: What about the T/C (endpoint: median tumor weight change, dose: 10.0 mg/kg/injection, schedule: Q01DX001 (ip), vehicle: DMSO) of the same compound?
Answer: 110 % of control

Question: How did the T/C (endpoint: median tumor weight change, dose: 7.5 mg/kg/injection, schedule: Q01DX001 (ip), vehicle: suspension in saline) turn out when `CCN(CC)CC[n+]1ccc2c(C)c3[nH]c4ccc(O)cc4c3c(C)c2c1` was run?
Answer: 83 % of control

Question: What about the T/C (endpoint: median tumor weight change, dose: 15.0 mg/kg/injection, schedule: Q01DX001 (ip), vehicle: suspension in saline) of the same compound?
Answer: 72 % of control and 75 % of control

Question: What about the T/C (endpoint: median tumor weight change, dose: 15.6 mg/kg/injection, schedule: Q01DX001 (ip), vehicle: suspension in saline) of the same compound?
Answer: 78 % of control

Question: And the T/C (endpoint: median tumor weight change, dose: 31.0 mg/kg/injection, schedule: Q01DX001 (ip), vehicle: suspension in saline)?
Answer: 57 % of control

Question: What about the T/C (endpoint: median tumor weight change, dose: 60.0 mg/kg/injection, schedule: Q01DX001 (ip), vehicle: suspension in saline) of the same compound?
Answer: 7 % of control and 26 % of control

Question: And the T/C (endpoint: median tumor weight change, dose: 62.0 mg/kg/injection, schedule: Q01DX001 (ip), vehicle: suspension in saline)?
Answer: 3 % of control

Question: Which T/C (endpoint: median tumor weight change, dose: 62.5 mg/kg/injection, schedule: Q01DX001 (ip), vehicle: saline with Tween-80) does the source give for `CCN(CC)c1ccc2[nH]c3c(C(N)=O)cc(=O)c(=O)c=3oc2c1` here?
Answer: 92 % of control

Question: What about the T/C [3] of the same compound?
Answer: 121 % of control

Question: And the T/C [4]?
Answer: 28 % of control

Question: `NC(=O)NO` was tested. Which T/C [1] did it give?
Answer: 67 % of control

Question: What about the T/C [2] of the same compound?
Answer: 116 % of control

Question: What about the T/C [5] of the same compound?
Answer: 56 % of control

Question: And the T/C (endpoint: median tumor weight (est.), dose: 400.0 mg/kg/injection, schedule: Q07DX005 (ip), vehicle: saline)?
Answer: 48 % of control

Question: What about the T/C (endpoint: median tumor weight (est.), dose: 800.0 mg/kg/injection, schedule: Q07DX005 (ip), vehicle: saline) of the same compound?
Answer: 59 % of control

Question: `COc1ccc2c(NCCCCCCNc3c4ccccc4nc4cc(OC)ccc34)c3ccccc3nc2c1` was tested. Which T/C (endpoint: median tumor weight (est.), dose: 1.25 mg/kg/injection, schedule: Q07DX005 (ip), vehicle: lactic acid) did it give?
Answer: 77 % of control

Question: And the T/C (endpoint: median tumor weight (est.), dose: 2.5 mg/kg/injection, schedule: Q07DX005 (ip), vehicle: lactic acid)?
Answer: 175 % of control

Question: And the T/C (endpoint: median tumor weight (est.), dose: 5.0 mg/kg/injection, schedule: Q07DX005 (ip), vehicle: lactic acid)?
Answer: 52 % of control

Question: What does the source list for `COC(=O)C(CSC(c1ccccc1)(c1ccccc1)c1ccccc1)NC(=O)C(CSCc1ccccc1)NC(=O)CCNC(=O)OCc1ccccc1` (configuration not stated) ({Cbz-βAla}-Cys(Bn)-Cys(Trt)-OMe; configuration not given here)?
Answer: T/C (endpoint: median tumor weight change, dose: 250.0 mg/kg/injection, schedule: Q01DX001 (ip), vehicle: Klucel (hydroxypropylcellulose) (HPC)): 107 % of control; T/C (endpoint: median tumor weight change, dose: 500.0 mg/kg/injection, schedule: Q01DX001 (ip), vehicle: Klucel (hydroxypropylcellulose) (HPC)): 95 % of control; T/C (endpoint: median tumor weight change, dose: 1000.0 mg/kg/injection, schedule: Q01DX001 (ip), vehicle: Klucel (hydroxypropylcellulose) (HPC)): 90 % of control; T/C (endpoint: median tumor weight change, dose: 2000.0 mg/kg/injection, schedule: Q01DX001 (ip), vehicle: Klucel (hydroxypropylcellulose) (HPC)): 84 % of control

Question: What does the source list for `NC(=O)Oc1cccc(OC(N)=O)c1`?
Answer: T/C (endpoint: mean tumor weight, dose: 50.0 mg/kg/injection, schedule: Q07DX006 (ip), vehicle: water): 161 % of control; T/C (endpoint: mean tumor weight, dose: 100.0 mg/kg/injection, schedule: Q07DX006 (ip), vehicle: water): 56 % of control; T/C (endpoint: mean tumor weight, dose: 200.0 mg/kg/injection, schedule: Q07DX006 (ip), vehicle: water): 73 % of control; T/C (endpoint: mean tumor weight, dose: 400.0 mg/kg/injection, schedule: Q07DX006 (ip), vehicle: water): 93 % of control; T/C (endpoint: median tumor weight (est.), dose: 25.0 mg/kg/injection, schedule: Q07DX005 (ip), vehicle: water): 99 % of control; T/C (endpoint: median tumor weight (est.), dose: 50.0 mg/kg/injection, schedule: Q07DX005 (ip), vehicle: water): 105 % of control; T/C (endpoint: median tumor weight (est.), dose: 200.0 mg/kg/injection, schedule: Q07DX005 (ip), vehicle: water): 106 % of control; T/C (endpoint: median tumor weight (est.), dose: 400.0 mg/kg/injection, schedule: Q07DX005 (ip), vehicle: water): 63 % of control

Question: Which results are given for `CCC(C)C1NC(=O)C(CC(C)C)NC(=O)C(C(C)C)NC(=O)C2CSSCC(NC1=O)C(=O)N2` (configuration not stated) (cyclo(CCVLI); disulfide 1-2; configuration not given here)?
Answer: T/C (endpoint: median tumor weight change, dose: 0.31 mg/kg/injection, schedule: Q01DX001 (ip), vehicle: Klucel (hydroxypropylcellulose) (HPC)): 78 % of control; T/C (endpoint: median tumor weight change, dose: 0.62 mg/kg/injection, schedule: Q01DX001 (ip), vehicle: Klucel (hydroxypropylcellulose) (HPC)): 118 % of control; T/C (endpoint: median tumor weight change, dose: 1.25 mg/kg/injection, schedule: Q01DX001 (ip), vehicle: Klucel (hydroxypropylcellulose) (HPC)): 74 % of control; T/C (endpoint: median tumor weight change, dose: 2.5 mg/kg/injection, schedule: Q01DX001 (ip), vehicle: Klucel (hydroxypropylcellulose) (HPC)): 94 % of control; T/C (endpoint: median tumor weight change, dose: 5.0 mg/kg/injection, schedule: Q01DX001 (ip), vehicle: Klucel (hydroxypropylcellulose) (HPC)): 111 % of control

Question: Which results are given for `CC1(C)OC(=O)N(CO)C1=O`?
Answer: T/C (endpoint: median tumor weight (est.), dose: 12.5 mg/kg/injection, schedule: Q07DX005 (ip), vehicle: saline): 52 % of control; T/C [1]: 73 % of control; T/C (endpoint: median tumor weight (est.), dose: 50.0 mg/kg/injection, schedule: Q07DX005 (ip), vehicle: saline): 9 % of control; T/C [2]: 110 % of control; T/C [5]: 104 % of control
